Experimental data published in PubChem BioAssay (NCI).
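GI50: concentration for 50% inhibition of growth. The concentration for full growth arrest is given as TGI.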

Experiments:
Experiment in all cases: growth of human tumour cells (NCI), 384-well format
786-0 renal = tested on: 786-0 renal
A498 renal = tested on: A498 renal
CAKI-1 renal = tested on: CAKI-1 renal
CCRF-CEM leukemia = tested on: CCRF-CEM leukemia
DU-145 prostate = tested on: DU-145 prostate
HCC-2998 colon = tested on: HCC-2998 colon
HCT-116 colon = tested on: HCT-116 colon
HCT-15 colon = tested on: HCT-15 colon
HOP-92 NSCLC = tested on: HOP-92 NSCLC
HS 578T breast = tested on: HS 578T breast
HT29 colon = tested on: HT29 colon
IGROV1 ovarian = tested on: IGROV1 ovarian
K-562 leukemia = tested on: K-562 leukemia
KM12 colon = tested on: KM12 colon
LOX IMVI melanoma = tested on: LOX IMVI melanoma
M14 melanoma = tested on: M14 melanoma
MALME-3M melanoma = tested on: MALME-3M melanoma
MCF7 breast = tested on: MCF7 breast
MDA-MB-435 melanoma = tested on: MDA-MB-435 melanoma
MDA-MB-468 breast = tested on: MDA-MB-468 breast
MOLT-4 leukemia = tested on: MOLT-4 leukemia
NCI-H23 lung = tested on: NCI-H23 lung
NCI-H322M lung = tested on: NCI-H322M lung
NCI-H460 NSCLC = tested on: NCI-H460 NSCLC
NCI-H522 lung = tested on: NCI-H522 lung
NCI/ADR-RES ovarian = tested on: NCI/ADR-RES ovarian
OVCAR-3 ovarian = tested on: OVCAR-3 ovarian
OVCAR-4 ovarian = tested on: OVCAR-4 ovarian
OVCAR-8 ovarian = tested on: OVCAR-8 ovarian
PC-3 prostate = tested on: PC-3 prostate
RPMI-8226 leukemia = tested on: RPMI-8226 leukemia
RXF 393 renal = tested on: RXF 393 renal
SF-268 CNS = tested on: SF-268 CNS
SF-295 CNS = tested on: SF-295 CNS
SF-539 CNS = tested on: SF-539 CNS
SK-MEL-2 melanoma = tested on: SK-MEL-2 melanoma
SK-MEL-28 melanoma = tested on: SK-MEL-28 melanoma
SK-MEL-5 melanoma = tested on: SK-MEL-5 melanoma
SN12C renal = tested on: SN12C renal
SNB-19 CNS = tested on: SNB-19 CNS
SR leukemia = tested on: SR leukemia
SW-620 colon = tested on: SW-620 colon
T-47D breast = tested on: T-47D breast
U251 glioblastoma = tested on: U251 glioblastoma
UACC-257 melanoma = tested on: UACC-257 melanoma
UACC-62 melanoma = tested on: UACC-62 melanoma
UO-31 renal = tested on: UO-31 renal

CC1=C(c2cccc(O)c2)[C@H](c2ccc(OCCN3CC(CF)C3)cc2)Oc2ccc(O)cc21
GI50 ([…]-0 renal): 2.65 µM | TGI (786-0 renal): 7.32 µM | GI50 (A498 renal): 2.28 µM | TGI (A498 renal): 6.48 µM | GI50 (CAKI-1 renal): 3.42 µM | TGI (CAKI-1 renal): 13.5 µM | GI50 (CCRF-CEM leukemia): 2.11 µM | TGI (CCRF-CEM leukemia): 4.88 µM | GI50 (DU-145 prostate): 10.8 µM | TGI (DU-145 prostate): 22.7 µM | GI50 (HCC-2998 colon): 1.54 µM | TGI (HCC-2998 colon): 3.23 µM | GI50 (HCT-116 colon): 3.62 µM | TGI (HCT-116 colon): 13.8 µM | GI50 (HCT-15 colon): 3.57 µM | TGI (HCT-15 colon): 13.2 µM | GI50 (HOP-92 NSCLC): 3.83 µM | TGI (HOP-92 NSCLC): 13.1 µM | GI50 (HS 578T breast): 2.48 µM | TGI (HS 578T breast): 12 µM | GI50 (HT29 colon): 1.94 µM | TGI (HT29 colon): 3.58 µM | GI50 (IGROV1 ovarian): 4.88 µM | TGI (IGROV1 ovarian): 16.9 µM | GI50 (K-562 leukemia): 1.73 µM | TGI (K-562 leukemia): 3.29 µM | GI50 (KM12 colon): 3.21 µM | TGI (KM12 colon): 10.2 µM | GI50 (LOX IMVI melanoma): 1.77 µM | TGI (LOX IMVI melanoma): 3.34 µM | GI50 (M14 melanoma): 1.89 µM | TGI (M14 melanoma): 3.88 µM | GI50 (MALME-3M melanoma): 1.64 µM | TGI (MALME-3M melanoma): 3.05 µM | TGI (MCF7 breast): 1.97 µM | GI50 (MDA-MB-435 melanoma): 10.7 µM | TGI (MDA-MB-435 melanoma): 22.6 µM | GI50 (MDA-MB-468 breast): 1.94 µM | TGI (MDA-MB-468 breast): 4.35 µM | GI50 (MOLT-4 leukemia): 1.58 µM | TGI (MOLT-4 leukemia): 2.97 µM | GI50 (NCI-H23 lung): 7.02 µM | TGI (NCI-H23 lung): 19.6 µM | GI50 (NCI-H322M lung): 6.69 µM | TGI (NCI-H322M lung): 19.6 µM | GI50 (NCI-H460 NSCLC): 2.18 µM | TGI (NCI-H460 NSCLC): 4.88 µM | GI50 (NCI-H522 lung): 11.1 µM | TGI (NCI-H522 lung): 23.1 µM | GI50 (NCI/ADR-RES ovarian): 16.2 µM | TGI (NCI/ADR-RES ovarian): 29.8 µM | GI50 (OVCAR-3 ovarian): 4.05 µM | TGI (OVCAR-3 ovarian): 15.4 µM | GI50 (OVCAR-4 ovarian): 5.79 µM | TGI (OVCAR-4 ovarian): 17.8 µM | GI50 (OVCAR-8 ovarian): 10.1 µM | TGI (OVCAR-8 ovarian): 21.8 µM | GI50 (PC-3 prostate): 4.5 µM | TGI (PC-3 prostate): 16.9 µM | GI50 (RPMI-8226 leukemia): 1.82 µM | TGI (RPMI-8226 leukemia): 4.02 µM | GI50 (RXF 393 renal): 1.87 µM | TGI (RXF 393 renal): 5.29 µM | GI50 (SF-268 CNS): 4.24 µM | TGI (SF-268 CNS): 15.6 µM | GI50 (SF-295 CNS): 11.6 µM | TGI (SF-295 CNS): 23.9 µM | GI50 (SF-539 CNS): 2.03 µM | TGI (SF-539 CNS): 4.26 µM | GI50 (SK-MEL-2 melanoma): 1.96 µM | TGI (SK-MEL-2 melanoma): 3.78 µM | GI50 (SK-MEL-28 melanoma): 3.05 µM | TGI (SK-MEL-28 melanoma): 11.6 µM | GI50 (SK-MEL-5 melanoma): 1.68 µM | TGI (SK-MEL-5 melanoma): 3.07 µM | GI50 (SN12C renal): 7.94 µM | TGI (SN12C renal): 20.6 µM | GI50 (SNB-19 CNS): 10.5 µM | TGI (SNB-19 CNS): 22.3 µM | GI50 (SR leukemia): 1.79 µM | TGI (SR leukemia): 3.23 µM | GI50 (SW-620 colon): 4.9 µM | TGI (SW-620 colon): 16.6 µM | GI50 (T-47D breast): 1.11 µM | TGI (T-47D breast): 12.4 µM | GI50 (U251 glioblastoma): 5.35 µM | TGI (U251 glioblastoma): 17.1 µM | GI50 (UACC-257 melanoma): 1.64 µM | TGI (UACC-257 melanoma): 3.01 µM | GI50 (UACC-62 melanoma): 4.7 µM | TGI (UACC-62 melanoma): 16.4 µM | GI50 (UO-31 renal): 9.8 µM | TGI (UO-31 renal): 21.5 µM

Cc1cc([N+](=O)[O-])c(NS(=O)(=O)c2cccc(C(=O)O)c2)cc1-c1cccnc1
GI50 ([…]-0 renal): > 100 µM | TGI (786-0 renal): > 100 µM | GI50 (A498 renal): > 100 µM | TGI (A498 renal): > 100 µM | GI50 (CAKI-1 renal): > 100 µM | TGI (CAKI-1 renal): > 100 µM | GI50 (CCRF-CEM leukemia): > 100 µM | TGI (CCRF-CEM leukemia): > 100 µM | GI50 (DU-145 prostate): > 100 µM | TGI (DU-145 prostate): > 100 µM | GI50 (HCC-2998 colon): > 100 µM | TGI (HCC-2998 colon): > 100 µM | GI50 (HCT-116 colon): > 100 µM | TGI (HCT-116 colon): > 100 µM | GI50 (HCT-15 colon): > 100 µM | TGI (HCT-15 colon): > 100 µM | GI50 (HOP-92 NSCLC): > 100 µM | TGI (HOP-92 NSCLC): > 100 µM | GI50 (HS 578T breast): > 100 µM | TGI (HS 578T breast): > 100 µM | GI50 (HT29 colon): > 100 µM | TGI (HT29 colon): > 100 µM | GI50 (IGROV1 ovarian): > 100 µM | TGI (IGROV1 ovarian): > 100 µM | GI50 (K-562 leukemia): > 100 µM | TGI (K-562 leukemia): > 100 µM | GI50 (KM12 colon): 16.8 µM | TGI (KM12 colon): > 100 µM | GI50 (LOX IMVI melanoma): > 100 µM | TGI (LOX IMVI melanoma): > 100 µM | GI50 (M14 melanoma): > 100 µM | TGI (M14 melanoma): > 100 µM | GI50 (MALME-3M melanoma): > 100 µM | TGI (MALME-3M melanoma): > 100 µM | GI50 (MCF7 breast): > 100 µM | TGI (MCF7 breast): > 100 µM | GI50 (MDA-MB-435 melanoma): > 100 µM | TGI (MDA-MB-435 melanoma): > 100 µM | GI50 (MDA-MB-468 breast): > 100 µM | TGI (MDA-MB-468 breast): > 100 µM | GI50 (MOLT-4 leukemia): > 100 µM | TGI (MOLT-4 leukemia): > 100 µM | GI50 (NCI-H23 lung): > 100 µM | TGI (NCI-H23 lung): > 100 µM | GI50 (NCI-H322M lung): > 100 µM | TGI (NCI-H322M lung): > 100 µM | GI50 (NCI-H460 NSCLC): > 100 µM | TGI (NCI-H460 NSCLC): > 100 µM | GI50 (NCI-H522 lung): > 100 µM | TGI (NCI-H522 lung): > 100 µM | GI50 (NCI/ADR-RES ovarian): > 100 µM | TGI (NCI/ADR-RES ovarian): > 100 µM | GI50 (OVCAR-3 ovarian): > 100 µM | TGI (OVCAR-3 ovarian): > 100 µM | GI50 (OVCAR-4 ovarian): > 100 µM | TGI (OVCAR-4 ovarian): > 100 µM | GI50 (OVCAR-8 ovarian): > 100 µM | TGI (OVCAR-8 ovarian): > 100 µM | GI50 (PC-3 prostate): > 100 µM | TGI (PC-3 prostate): > 100 µM | GI50 (RPMI-8226 leukemia): > 100 µM | TGI (RPMI-8226 leukemia): > 100 µM | GI50 (RXF 393 renal): > 100 µM | TGI (RXF 393 renal): > 100 µM | GI50 (SF-268 CNS): > 100 µM | TGI (SF-268 CNS): > 100 µM | GI50 (SF-295 CNS): > 100 µM | TGI (SF-295 CNS): > 100 µM | GI50 (SF-539 CNS): > 100 µM | TGI (SF-539 CNS): > 100 µM | GI50 (SK-MEL-2 melanoma): > 100 µM | TGI (SK-MEL-2 melanoma): > 100 µM | GI50 (SK-MEL-28 melanoma): > 100 µM | TGI (SK-MEL-28 melanoma): > 100 µM | GI50 (SK-MEL-5 melanoma): > 100 µM | TGI (SK-MEL-5 melanoma): > 100 µM | GI50 (SN12C renal): > 100 µM | TGI (SN12C renal): > 100 µM | GI50 (SNB-19 CNS): > 100 µM | TGI (SNB-19 CNS): > 100 µM | GI50 (SR leukemia): > 61.5 µM | TGI (SR leukemia): > 100 µM | GI50 (SW-620 colon): > 100 µM | TGI (SW-620 colon): > 100 µM | GI50 (T-47D breast): > 100 µM | TGI (T-47D breast): > 100 µM | GI50 (U251 glioblastoma): > 100 µM | TGI (U251 glioblastoma): > 100 µM | GI50 (UACC-257 melanoma): > 100 µM | TGI (UACC-257 melanoma): > 100 µM | GI50 (UACC-62 melanoma): > 100 µM | TGI (UACC-62 melanoma): > 100 µM | GI50 (UO-31 renal): > 100 µM | TGI (UO-31 renal): > 100 µM
